Broadly, the EC50 is the concentration needed to bring the measured effect to its halfway point.

Common to all, as to assay type: biochemical
One experiment deals with T1, TYK2 (Homo sapiens, UniProt P29597).
T1 construct: JAK1 (aa 850-1154) and TYK2 (aa 871-1187) are expressed with an N-terminally fused GST-tag; GST (N); purchased Carna Biosciences, Inc; host or cells: baculovirus expression system
T1 sequence (P29597 871-1187): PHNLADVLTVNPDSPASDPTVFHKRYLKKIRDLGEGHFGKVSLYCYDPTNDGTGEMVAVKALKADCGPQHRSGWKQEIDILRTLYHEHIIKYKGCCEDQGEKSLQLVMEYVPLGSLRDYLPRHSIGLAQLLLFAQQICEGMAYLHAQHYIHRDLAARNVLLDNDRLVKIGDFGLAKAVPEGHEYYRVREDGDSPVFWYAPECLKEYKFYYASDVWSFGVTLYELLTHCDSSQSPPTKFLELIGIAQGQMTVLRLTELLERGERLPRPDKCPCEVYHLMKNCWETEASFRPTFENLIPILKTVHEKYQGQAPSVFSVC
The experiment can be described thus: TYK2 kinase assay (HTRF, inhibition of phosphorylation of a synthetic peptide). The note with it: catalytic domain aa 871-1187, GST-tag; 13 μM ATP (Km); read-out: TYK2 kinase inhibitory activity (EC50). The gist of the method: (§1)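 Baculovirus-expressed human catalytic domains (GST-JAK1, GST-TYK2, His-JAK2, His-JAK3) phosphorylated 1 μM TK substrate-biotin at ATP Km (JAK1 7 μM, JAK2 4 μM, JAK3 2 μM, TYK2 13 μM) in pH 7.0 Hepes for 20-30 min at RT, 0.75% DMSO. EDTA stop, then overnight streptavidin-XL665/cryptate-antibody detection and HTRF read.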

A further experiment deals with T2, JAK1 (Homo sapiens, UniProt P23458).
T2 construct: JAK1 (aa 850-1154) and TYK2 (aa 871-1187) are expressed with an N-terminally fused GST-tag; GST (N); purchased Carna Biosciences, Inc; host or cells: baculovirus expression system
T2 sequence (P23458 850-1154): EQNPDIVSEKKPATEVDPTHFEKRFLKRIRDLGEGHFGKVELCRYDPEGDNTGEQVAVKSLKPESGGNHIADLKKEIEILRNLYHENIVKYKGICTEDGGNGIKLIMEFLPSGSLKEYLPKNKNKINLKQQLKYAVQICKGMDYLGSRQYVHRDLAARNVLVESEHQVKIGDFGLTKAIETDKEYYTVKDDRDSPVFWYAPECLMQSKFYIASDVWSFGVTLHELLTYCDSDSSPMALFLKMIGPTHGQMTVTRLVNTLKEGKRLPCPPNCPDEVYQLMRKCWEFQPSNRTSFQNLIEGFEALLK
The experiment can be described thus: JAK1 kinase assay (HTRF, inhibition of phosphorylation of a synthetic peptide). The note with it: catalytic domain aa 850-1154, GST-tag; 7 μM ATP (Km); read-out: JAK1 kinase inhibitory activity (EC50). The gist of the method:
as §1

The next experiment addresses T3, JAK2 (Homo sapiens, UniProt O60674).
T3 construct: All four purified enzymes contain only the catalytic domain; His (N); purchased Carna Biosciences, Inc; host or cells: baculovirus expression system
The experiment can be described thus: JAK2 kinase assay (HTRF, inhibition of phosphorylation of a synthetic peptide). The following applies: catalytic domain, His-tag; 4 μM ATP (Km); read-out: JAK2 kinase inhibitory activity (EC50). An outline of the steps:
as §1
(In TR-FRET formats the signal depends on donor and acceptor labels being close together.)

The target of the next experiment is T4, JAK3 (Homo sapiens, UniProt P52333).
T4 construct: All four purified enzymes contain only the catalytic domain; His (N); purchased Carna Biosciences, Inc; host or cells: baculovirus expression system
T4 sequence (P52333 822-1111 limits assumed): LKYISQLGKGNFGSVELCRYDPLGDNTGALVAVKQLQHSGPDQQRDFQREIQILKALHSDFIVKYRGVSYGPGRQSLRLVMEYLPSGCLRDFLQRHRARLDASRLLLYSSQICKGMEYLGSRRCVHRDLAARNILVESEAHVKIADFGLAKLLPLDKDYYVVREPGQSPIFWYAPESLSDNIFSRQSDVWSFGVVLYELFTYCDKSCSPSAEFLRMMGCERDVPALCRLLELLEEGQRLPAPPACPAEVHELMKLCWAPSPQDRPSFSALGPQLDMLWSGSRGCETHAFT
The experiment can be described thus: JAK3 kinase assay (HTRF, inhibition of phosphorylation of a synthetic peptide). The note with it: catalytic domain, His-tag; 2 μM ATP (Km); read-out: JAK3 kinase inhibitory activity (EC50). The gist of the method:
as §1

T3 sequence (O60674 849-1124 limits assumed): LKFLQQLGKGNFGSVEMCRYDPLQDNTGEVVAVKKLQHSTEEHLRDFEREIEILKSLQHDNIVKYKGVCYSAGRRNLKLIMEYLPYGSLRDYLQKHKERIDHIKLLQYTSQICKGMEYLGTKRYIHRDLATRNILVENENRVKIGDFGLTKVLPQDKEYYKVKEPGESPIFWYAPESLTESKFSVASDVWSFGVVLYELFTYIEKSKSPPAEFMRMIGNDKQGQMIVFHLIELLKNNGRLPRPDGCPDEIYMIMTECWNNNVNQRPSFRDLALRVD

With `COc1csc(C(=O)N2CCN(c3ncnc4[nH]ccc34)CC3(CC3)C2)c1` [Example 22, (4-methoxy-2-thienyl)-[5-(7H-pyrrolo[2,3-d]pyrimidin-4-yl)-5,8-diazaspiro[2.6]nonan-8-yl]methanone], the half-maximal effective concentration (EC50) is more than 1000 nM on TYK2, less than 100 nM on JAK1, 100 to 1000 nM on JAK2 and 100 to 1000 nM on JAK3.

On to `N#Cc1ccc(C(=O)C(=O)N2CCN(c3ncnc4[nH]ccc34)CC3(CC3)C2)cc1` [Example 100, 4-[2-oxo-2-[5-(7H-pyrrolo[2,3-d]pyrimidin-4-yl)-5,8-diazaspiro[2.6]nonan-8-yl]acetyl]benzonitrile], for which the EC50 is more than 1000 nM on TYK2, less than 100 nM on JAK1, less than 100 nM at JAK2 and more than 1000 nM at JAK3.

For the molecule `Cc1ccc(C(=O)N2CCN(c3ncnc4[nH]ccc34)CC3(CC3)C2)cc1S(N)(=O)=O` [Example 38, 2-methyl-5-[5-(7H-pyrrolo[2,3-d]pyrimidin-4-yl)-5,8-diazaspiro[2.6]nonane-8-carbonyl]benzenesulfonamide], the concentration for a half-maximal effect (EC50) on TYK2 was 100 to 1000 nM; at JAK1, less than 100 nM; at JAK2, less than 100 nM; at JAK3, 100 to 1000 nM.

Consider `CNS(=O)(=O)c1ccc(C(=O)N2CCN(c3ncnc4[nH]ccc34)CC3(CC3)C2)cc1` [Example 72, N-methyl-4-[5-(7H-pyrrolo[2,3-d]pyrimidin-4-yl)-5,8-diazaspiro[2.6]nonane-8-carbonyl]benzenesulfonamide], for which the concentration giving a half-maximal response (EC50) was more than 1000 nM at TYK2, 100 to 1000 nM on JAK1, less than 100 nM at JAK2 and 100 to 1000 nM at JAK3.

With `N#Cc1cccc(CC(=O)N2CCN(c3ncnc4[nH]ccc34)CC3(CC3)C2)c1` [Example 9, 3-{2-oxo-2-[8-(7H-pyrrolo[2,3-d]pyrimidin-4-yl)-5,8-diazaspiro[2.6]non-5-yl]ethyl}benzonitrile], the EC50 at TYK2 was more than 1000 nM; at JAK1 it was 100 to 1000 nM; at JAK2 it was less than 100 nM; at JAK3 it was 100 to 1000 nM.

As to `c1nc(N2CCNC3(CC2)CC3)c2cc[nH]c2n1` [Example 291], the EC50 at TYK2, at JAK1, at JAK2 and at JAK3 was more than 1000 nM throughout.

In the case of `Cc1[nH]c(C(=O)N2CCCN(c3ncnc4[nH]ccc34)CC23CC3)cc1C#N` [Example 278, 2-methyl-5-[5-(7H-pyrrolo[2,3-d]pyrimidin-4-yl)-5,9-diazaspiro[2.6]nonane-9-carbonyl]-1H-pyrrole-3-carbonitrile], the EC50 on TYK2 is 100 to 1000 nM; at JAK1 it was less than 100 nM; on JAK2 it was less than 100 nM; at JAK3, 100 to 1000 nM.

`NS(=O)(=O)c1ccc(CC(=O)N2CCN(c3ncnc4[nH]ccc34)CC3(CC3)C2)cc1` [Example 20, 4-[2-oxo-2-[5-(7H-pyrrolo[2,3-d]pyrimidin-4-yl)-5,8-diazaspiro[2.6]nonan-8-yl]ethyl]benzenesulfonamide]: the EC50 was 100 to 1000 nM on TYK2, less than 100 nM at JAK1, less than 100 nM at JAK2 and less than 100 nM on JAK3.

In the case of `NS(=O)(=O)c1ccc(-c2ccc(C(=O)N3CCN(c4ncnc5[nH]ccc45)CC4(CC4)C3)o2)cc1` [Example 65, 4-[5-[5-(7H-pyrrolo[2,3-d]pyrimidin-4-yl)-5,8-diazaspiro[2.6]nonane-8-carbonyl]-2-furyl]benzenesulfonamide], the EC50 was 100 to 1000 nM on TYK2, less than 100 nM on JAK1, less than 100 nM at JAK2 and 100 to 1000 nM at JAK3.

As to `CNS(=O)(=O)c1cc(C(=O)N2CCN(c3ncnc4[nH]ccc34)CC3(CC3)C2)sc1C` [Example 26, N,2-dimethyl-5-[5-(7H-pyrrolo[2,3-d]pyrimidin-4-yl)-5,8-diazaspiro[2.6]nonane-8-carbonyl]thiophene-3-sulfonamide], the EC50 at TYK2 was more than 1000 nM; at JAK1, 100 to 1000 nM; on JAK2, less than 100 nM; on JAK3, 100 to 1000 nM.

`CN(CCC#N)S(=O)(=O)N1CCN(c2ncnc3[nH]ccc23)CC2(CC2)C1` [Example 103, N-(2-cyanoethyl)-N-methyl-5-(7H-pyrrolo[2,3-d]pyrimidin-4-yl)-5,8-diazaspiro[2.6]nonane-8-sulfonamide]: the EC50 at TYK2 is more than 1000 nM; at JAK1 it was 100 to 1000 nM; at JAK2, 100 to 1000 nM; on JAK3 it was more than 1000 nM.

`Cc1cc(CC(=O)N2CCN(c3ncnc4[nH]ccc34)CC3(CC3)C2)no1` [Example 87, 2-(5-methylisoxazol-3-yl)-1-[5-(7H-pyrrolo[2,3-d]pyrimidin-4-yl)-5,8-diazaspiro[2.6]nonan-8-yl]ethanone]: the EC50 on TYK2 was 100 to 1000 nM; on JAK1 it was less than 100 nM; on JAK2 it was less than 100 nM; on JAK3, 100 to 1000 nM.

Regarding `NS(=O)(=O)c1cc(C(=O)N2CCN(c3ncnc4[nH]ccc34)CC3(CC3)C2)cs1` [Example 75], the EC50 on TYK2 is 100 to 1000 nM; at JAK1, less than 100 nM; on JAK2, less than 100 nM; at JAK3 it was 100 to 1000 nM.

On to `O=C(c1ccon1)N1CCCN(c2ncnc3[nH]ccc23)CC12CC2` [Example 153, isoxazol-3-yl-[5-(7H-pyrrolo[2,3-d]pyrimidin-4-yl)-5,9-diazaspiro[2.6]nonan-9-yl]methanone], for which the EC50 at TYK2 was 100 to 1000 nM; at JAK1, less than 100 nM; on JAK2, less than 100 nM; on JAK3, 100 to 1000 nM.

`N#Cc1c[nH]c(C(=O)N2CCCN(c3ncnc4[nH]ccc34)CC23CC3)c1` [Example 209, 5-[5-(7H-pyrrolo[2,3-d]pyrimidin-4-yl)-5,9-diazaspiro[2.6]nonane-9-carbonyl]-1H-pyrrole-3-carbonitrile]: the EC50 on TYK2, on JAK1, at JAK2 and at JAK3 was less than 100 nM throughout.

For `O=C(c1csnn1)N1CCCN(c2ncnc3[nH]ccc23)CC12CC2` [Example 142, [5-(7H-pyrrolo[2,3-d]pyrimidin-4-yl)-5,9-diazaspiro[2.6]nonan-9-yl]-(thiadiazol-4-yl)methanone], the EC50 on TYK2 is 100 to 1000 nM; at JAK1, less than 100 nM; on JAK2, less than 100 nM; at JAK3 it was 100 to 1000 nM.

Regarding `NS(=O)(=O)CCCC(=O)N1CCN(c2ncnc3[nH]ccc23)CC2(CC2)C1` [Example 39, 4-oxo-4-[5-(7H-pyrrolo[2,3-d]pyrimidin-4-yl)-5,8-diazaspiro[2.6]nonan-8-yl]butane-1-sulfonamide], the 50% effective concentration (EC50) is more than 1000 nM on TYK2, less than 100 nM at JAK1, less than 100 nM on JAK2 and less than 100 nM on JAK3.

Consider `O=C(CCC(F)(F)F)N1CCN(c2ncnc3[nH]ccc23)CCC12CC2` [Example 45, 4,4,4-trifluoro-1-[6-(7H-pyrrolo[2,3-d]pyrimidin-4-yl)-6,9-diazaspiro[2.6]nonan-9-yl]butan-1-one], for which the EC50 at TYK2 was more than 1000 nM; at JAK1, 100 to 1000 nM; on JAK2 it was 100 to 1000 nM; on JAK3 it was 100 to 1000 nM.

For `O=C(Cc1ccc(I)cc1)N1CCN(c2ncnc3[nH]ccc23)CC2(CC2)C1` [Example 66, 2-(4-iodophenyl)-1-[5-(7H-pyrrolo[2,3-d]pyrimidin-4-yl)-5,8-diazaspiro[2.6]nonan-8-yl]ethanone], the EC50 at TYK2 was 100 to 1000 nM; at JAK1, less than 100 nM; on JAK2, less than 100 nM; on JAK3 it was 100 to 1000 nM.

With `N#CC1(C(=O)N2CCN(c3ncnc4[nH]ccc34)CCC23CC3)CC1` [Example 44, 1-[6-(7H-pyrrolo[2,3-d]pyrimidin-4-yl)-6,9-diazaspiro[2.6]nonane-9-carbonyl]cyclopropanecarbonitrile], the EC50 at TYK2 was more than 1000 nM; at JAK1, 100 to 1000 nM; on JAK2, 100 to 1000 nM; on JAK3, more than 1000 nM.

On to `CCCCC(=O)Nc1nc(N2CCCN(Cc3ccccc3)C3(CC3)C2)c2cc[nH]c2n1` [Example 283, N-[4-(9-benzyl-5,9-diazaspiro[2.6]nonan-5-yl)-7H-pyrrolo[2,3-d]pyrimidin-2-yl]pentanamide], for which the EC50 at TYK2, at JAK1, at JAK2 and at JAK3 was more than 1000 nM throughout.

With `N#Cc1cccc(CC(=O)N2CCN(c3ncnc4[nH]ccc34)CCC23CC3)c1` [Example 47, 3-[2-oxo-2-[6-(7H-pyrrolo[2,3-d]pyrimidin-4-yl)-6,9-diazaspiro[2.6]nonan-9-yl]ethyl]benzonitrile], the 50% effective concentration (EC50) on TYK2, at JAK1, on JAK2 and at JAK3 was more than 1000 nM throughout.

(Values after US9586961B2, “Homopiperazine derivatives as protein tyrosine kinase inhibitors and pharmaceutical use thereof” (LEO PHARMA A/S, priority 2010, dated 2017).)
